Data taken from PubChem BioAssay AID248 (DTP/NCI, 2004).
Inconclusive results and toxic doses are left out. Rule as the data show it: active = T/C of 150% or more; inactive = T/C below 125%.

Tested on: L1210 leukemia ip in BDF1 mice, survival T/C
Assay: NCI In Vivo Anticancer Drug Screen. Data for tumor model L1210 Leukemia (intraperitoneal) in B6D2F1 (BDF1) mice
Conditions: endpoint: mean survival time, higher = longer survival
In short: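 In this screen, tumor-bearing mice given compound are compared to those given vehicle, and their survival values are reported as a treated-to-control quotient.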

[1] = dose: 100.0 mg/kg/injection, schedule: Q01DX009 (ip), vehicle: Klucel (hydroxypropylcellulose) (HPC)
[2] = dose: 200.0 mg/kg/injection, schedule: Q01DX009 (ip), vehicle: Klucel (hydroxypropylcellulose) (HPC)
[3] = dose: 400.0 mg/kg/injection, schedule: Q01DX009 (ip), vehicle: Klucel (hydroxypropylcellulose) (HPC)
[4] = dose: 100.0 mg/kg/injection, schedule: Q04DX002 (ip), vehicle: saline with Tween-80
[5] = dose: 100.0 mg/kg/injection, schedule: Q04DX002 (ip), vehicle: Klucel (hydroxypropylcellulose) (HPC)
[6] = dose: 200.0 mg/kg/injection, schedule: Q04DX002 (ip), vehicle: Klucel (hydroxypropylcellulose) (HPC)
[7] = dose: 100.0 mg/kg/injection, schedule: Q04DX003 (ip), vehicle: Klucel (hydroxypropylcellulose) (HPC)
[8] = dose: 200.0 mg/kg/injection, schedule: Q04DX003 (ip), vehicle: Klucel (hydroxypropylcellulose) (HPC)
[9] = dose: 400.0 mg/kg/injection, schedule: Q04DX003 (ip), vehicle: Klucel (hydroxypropylcellulose) (HPC)
[10] = dose: 75.0 mg/kg/injection, schedule: Q01DX001 (ip), vehicle: saline
[11] = dose: 100.0 mg/kg/injection, schedule: Q04DX003 (ip), vehicle: saline
[12] = dose: 200.0 mg/kg/injection, schedule: Q04DX003 (ip), vehicle: saline
[13] = dose: 400.0 mg/kg/injection, schedule: Q04DX003 (ip), vehicle: saline
[14] = dose: 50.0 mg/kg/injection, schedule: Q01DX009 (ip), vehicle: saline with Tween-80
[15] = dose: 100.0 mg/kg/injection, schedule: Q04DX003 (ip), vehicle: saline with Tween-80

Measured: T/C

COC(=O)c1ccccc1NC(=O)Nc1ccc(SC)cc1
inactive: [1] 89 % of control | [2] 92 % of control | [3] 95 % of control

S=C(Nc1ccc(Cl)cc1)NC1CC2C=CC1C2 (stereo not drawn)
inactive: [4] 101 % of control | dose: 200.0 mg/kg/injection, schedule: Q04DX002 (ip), vehicle: saline with Tween-80 93 % of control

CCS(=O)(=O)C(Br)CBr (stereo not drawn)
inactive: dose: 25.0 mg/kg/injection, schedule: Q01DX009 (ip), vehicle: Klucel (hydroxypropylcellulose) (HPC) 100 % of control | dose: 50.0 mg/kg/injection, schedule: Q01DX009 (ip), vehicle: Klucel (hydroxypropylcellulose) (HPC) 114 % of control | [1] 105 % of control | [5] 103 % of control | [6] 95 % of control

O=C(Nc1cccc(-c2nc3ccccc3[nH]2)c1)c1ccc(C(=O)Nc2cccc(-c3nc4ccccc4[nH]3)c2)cc1
inactive: dose: 15.0 mg/kg/injection, schedule: Q01DX Z (ip), vehicle: carboxymethylcellulose (CMC) 91 % of control | dose: 30.0 mg/kg/injection, schedule: Q01DX Z (ip), vehicle: carboxymethylcellulose (CMC) 90 % of control | dose: 60.0 mg/kg/injection, schedule: Q01DX Z (ip), vehicle: carboxymethylcellulose (CMC) 87 % of control | dose: 120.0 mg/kg/injection, schedule: Q01DX Z (ip), vehicle: carboxymethylcellulose (CMC) 86 % of control | dose: 125.0 mg/kg/injection, schedule: Q01DX Z (ip), vehicle: water 95 % of control | dose: 250.0 mg/kg/injection, schedule: Q01DX Z (ip), vehicle: water 96 % of control | dose: 500.0 mg/kg/injection, schedule: Q01DX Z (ip), vehicle: water 112 % of control

CCC(=O)/C=C/c1ccc([N+](=O)[O-])cc1
inactive: dose: 100.0 mg/kg/injection, schedule: Q04DX003 (ip), vehicle: other 101 % of control | dose: 200.0 mg/kg/injection, schedule: Q04DX003 (ip), vehicle: other 93 % of control | dose: 400.0 mg/kg/injection, schedule: Q04DX003 (ip), vehicle: other 93 % of control

CCCCCCCCCCCC(=O)NC(=S)Nc1ccc([N+](=O)[O-])cc1OC
inactive: [7] 96 % of control | [8] 92 % of control | [9] 102 % of control

Cn1c(N)c(N=CC2CCCCC2)c(=O)n(C)c1=O
inactive: dose: 100.0 mg/kg/injection, schedule: Q01DX001 (ip), vehicle: saline 100 % of control | dose: 200.0 mg/kg/injection, schedule: Q01DX001 (ip), vehicle: saline 100 % of control | dose: 400.0 mg/kg/injection, schedule: Q01DX001 (ip), vehicle: saline 102 % of control

O=C1C2C3C=CC(C3)C2C(=O)C2C3C=CC(C3)C12 (stereo not drawn)
inactive: dose: 50.0 mg/kg/injection, schedule: Q01DX001 (ip), vehicle: carboxymethylcellulose (CMC) 103 % of control | dose: 100.0 mg/kg/injection, schedule: Q01DX001 (ip), vehicle: carboxymethylcellulose (CMC) 93 % of control | dose: 200.0 mg/kg/injection, schedule: Q01DX001 (ip), vehicle: carboxymethylcellulose (CMC) 100 % of control | dose: 400.0 mg/kg/injection, schedule: Q01DX001 (ip), vehicle: carboxymethylcellulose (CMC) 112 % of control

CNC(COC(=O)c1ccc(N)cc1)C1CCCCC1 (stereo not drawn)
inactive: [10] 97 % of control

OCCCNCc1ccccc1
inactive: [11] 94 % of control | [12] 103 % of control | [13] 97 % of control

NC(=O)C[CH2][Sn]([c]1ccccc1)([c]1ccccc1)[c]1ccccc1
inactive: [14] 101 % of control | dose: 100.0 mg/kg/injection, schedule: Q01DX009 (ip), vehicle: saline with Tween-80 112 % of control

COc1cccc(/C=N\O)c1
inactive: dose: 50.0 mg/kg/injection, schedule: Q01DX009 (ip), vehicle: saline 98 % of control | dose: 50.0 mg/kg/injection, schedule: Q04DX003 (ip), vehicle: saline 95 % of control | dose: 100.0 mg/kg/injection, schedule: Q01DX009 (ip), vehicle: saline 100 % of control | [11] 95 % of control | dose: 200.0 mg/kg/injection, schedule: Q01DX009 (ip), vehicle: saline 96 % of control | [12] 101 % of control | dose: 400.0 mg/kg/injection, schedule: Q01DX009 (ip), vehicle: saline 95 % of control | [13] 95 % of control

COc1cccc2c1C13CC(C)CC(C2)C1CCC(=O)N3 (stereo not drawn)
inactive: [7] 100 % of control | [8] 93 % of control | [9] 102 % of control

CCCCCCCCCCCCC(CCC)(OO)C(=O)OC (stereo not drawn)
inactive: dose: 25.0 mg/kg/injection, schedule: Q04DX002 (ip), vehicle: saline with Tween-80 98 % of control | dose: 50.0 mg/kg/injection, schedule: Q04DX002 (ip), vehicle: saline with Tween-80 87 % of control | [4] 98 % of control

O=C(NCCCCCCCCCCNC(=O)Nc1cccc(C2=NCC(O)CN2)c1)Nc1cccc(C2=NCC(O)CN2)c1 (stereo not drawn)
inactive: dose: 5.25 mg/kg/injection, schedule: Q01DX Z (ip), vehicle: carboxymethylcellulose (CMC) 106 % of control | dose: 10.5 mg/kg/injection, schedule: Q01DX Z (ip), vehicle: carboxymethylcellulose (CMC) 117 % of control | dose: 21.0 mg/kg/injection, schedule: Q01DX Z (ip), vehicle: carboxymethylcellulose (CMC) 103 % of control | dose: 42.0 mg/kg/injection, schedule: Q01DX Z (ip), vehicle: carboxymethylcellulose (CMC) 97 % of control

Cc1cccc(C)c1NC(=O)Oc1c(C)cccc1C
inactive: [1] 106 % of control | [7] 102 % of control | [2] 101 % of control | [8] 102 % of control | [3] 97 % of control | [9] 100 % of control

CSc1ccnc2n[nH]nc12
inactive: dose: 100.0 mg/kg/injection, schedule: Q01DX001 (ip), vehicle: Klucel (hydroxypropylcellulose) (HPC) 102 % of control | [7] 94 % of control | dose: 200.0 mg/kg/injection, schedule: Q01DX001 (ip), vehicle: Klucel (hydroxypropylcellulose) (HPC) 104 % of control | [8] 101 % of control

CS/C(N)=N/N=C(\N)SC
inactive: dose: 25.0 mg/kg/injection, schedule: Q01DX009 (ip), vehicle: saline with Tween-80 101 % of control | dose: 25.0 mg/kg/injection, schedule: Q04DX003 (ip), vehicle: saline with Tween-80 91 % of control | [14] 95 % of control | dose: 50.0 mg/kg/injection, schedule: Q04DX003 (ip), vehicle: saline with Tween-80 90 % of control | dose: 100.0 mg/kg/injection, schedule: Q01DX001 (ip), vehicle: saline with Tween-80 102 % of control | [15] 111 % of control

C/C=C(\CC)C1(CC)C(=O)NC(=O)NC1=O
inactive: dose: 75.0 mg/kg/injection, schedule: Q01DX001 (ip), vehicle: other 97 % of control | [10] 102 % of control | dose: 150.0 mg/kg/injection, schedule: Q01DX001 (ip), vehicle: other 97 % of control | dose: 150.0 mg/kg/injection, schedule: Q01DX001 (ip), vehicle: saline 103 % of control | dose: 300.0 mg/kg/injection, schedule: Q01DX001 (ip), vehicle: other 91 % of control | dose: 300.0 mg/kg/injection, schedule: Q01DX001 (ip), vehicle: saline 112 % of control

CC1CN=C(c2cccc(NC(=O)NCCCCNC(=O)Nc3cccc(C4=NCC(C)N4)c3)c2)N1 (stereo not drawn)
inactive: dose: 6.5 mg/kg/injection, schedule: Q01DX Z (ip), vehicle: carboxymethylcellulose (CMC) 94 % of control

COc1cc(Nc2nc(N)ncc2N)cc(OC)c1OC
inactive: [15] 95 % of control | dose: 200.0 mg/kg/injection, schedule: Q04DX003 (ip), vehicle: saline with Tween-80 98 % of control | dose: 400.0 mg/kg/injection, schedule: Q04DX003 (ip), vehicle: saline with Tween-80 92 % of control

O=C(NC1CCCCC1)c1ccc(C(=O)NC2CCCCC2)cc1
inactive: [5] 94 % of control | [6] 102 % of control | dose: 400.0 mg/kg/injection, schedule: Q04DX002 (ip), vehicle: Klucel (hydroxypropylcellulose) (HPC) 91 % of control
